The numbers were not newly measured in patent US20260053767A1, “Hepatoprotective Compositions And Methods” (Jemyll, Ltd., priority 2022, published 2026), which cites them from elsewhere.

Each structure is given as a SMILES string.

For this data set the following is noted: reported: adipose tissue inflammation, insulin resistance, non-alcoholic fatty liver disease; cited from earlier work.

In the case of `CCCCCCCCCCCC(=O)O` [lauric acid], the “effects on the liver and other tissues” value was “significant adverse effects on the liver and other tissues”.
